# Calls of active or inactive are those of the source. No cut-off for these calls is given here.
# Experiments:
# MAO-A = MAO-A (Homo sapiens, UniProt P21397); assay: Inhibition of Monoamine Oxidase MAO-A at compound concentration of 10.0 uM in the Eurofins-Panlabs enzyme assay (Eurofins_assay_140010); parameters: substrate with concentration 50 uM Kynuramine, incubation time 60 min, incubation temperature 37 C; conditions: human recombinant MAO-A expressed in insect Hi5 cells, probe Kynuramine (50 uM), compound concentration 10 uM
# [1] = molecular target: Mitotic checkpoint serine/threonine-protein kinase BUB1 (Homo sapiens, UniProt O43683); assay: TR-FRET
# [2] = molecular target: Serine/threonine-protein kinase MRCK gamma (Homo sapiens, UniProt Q6DT37); assay: DMPK2 DiscoveRx kinase panel
# Serine/threonine-protein kinase MRCK gamma, sequence (Q6DT37 whole entry): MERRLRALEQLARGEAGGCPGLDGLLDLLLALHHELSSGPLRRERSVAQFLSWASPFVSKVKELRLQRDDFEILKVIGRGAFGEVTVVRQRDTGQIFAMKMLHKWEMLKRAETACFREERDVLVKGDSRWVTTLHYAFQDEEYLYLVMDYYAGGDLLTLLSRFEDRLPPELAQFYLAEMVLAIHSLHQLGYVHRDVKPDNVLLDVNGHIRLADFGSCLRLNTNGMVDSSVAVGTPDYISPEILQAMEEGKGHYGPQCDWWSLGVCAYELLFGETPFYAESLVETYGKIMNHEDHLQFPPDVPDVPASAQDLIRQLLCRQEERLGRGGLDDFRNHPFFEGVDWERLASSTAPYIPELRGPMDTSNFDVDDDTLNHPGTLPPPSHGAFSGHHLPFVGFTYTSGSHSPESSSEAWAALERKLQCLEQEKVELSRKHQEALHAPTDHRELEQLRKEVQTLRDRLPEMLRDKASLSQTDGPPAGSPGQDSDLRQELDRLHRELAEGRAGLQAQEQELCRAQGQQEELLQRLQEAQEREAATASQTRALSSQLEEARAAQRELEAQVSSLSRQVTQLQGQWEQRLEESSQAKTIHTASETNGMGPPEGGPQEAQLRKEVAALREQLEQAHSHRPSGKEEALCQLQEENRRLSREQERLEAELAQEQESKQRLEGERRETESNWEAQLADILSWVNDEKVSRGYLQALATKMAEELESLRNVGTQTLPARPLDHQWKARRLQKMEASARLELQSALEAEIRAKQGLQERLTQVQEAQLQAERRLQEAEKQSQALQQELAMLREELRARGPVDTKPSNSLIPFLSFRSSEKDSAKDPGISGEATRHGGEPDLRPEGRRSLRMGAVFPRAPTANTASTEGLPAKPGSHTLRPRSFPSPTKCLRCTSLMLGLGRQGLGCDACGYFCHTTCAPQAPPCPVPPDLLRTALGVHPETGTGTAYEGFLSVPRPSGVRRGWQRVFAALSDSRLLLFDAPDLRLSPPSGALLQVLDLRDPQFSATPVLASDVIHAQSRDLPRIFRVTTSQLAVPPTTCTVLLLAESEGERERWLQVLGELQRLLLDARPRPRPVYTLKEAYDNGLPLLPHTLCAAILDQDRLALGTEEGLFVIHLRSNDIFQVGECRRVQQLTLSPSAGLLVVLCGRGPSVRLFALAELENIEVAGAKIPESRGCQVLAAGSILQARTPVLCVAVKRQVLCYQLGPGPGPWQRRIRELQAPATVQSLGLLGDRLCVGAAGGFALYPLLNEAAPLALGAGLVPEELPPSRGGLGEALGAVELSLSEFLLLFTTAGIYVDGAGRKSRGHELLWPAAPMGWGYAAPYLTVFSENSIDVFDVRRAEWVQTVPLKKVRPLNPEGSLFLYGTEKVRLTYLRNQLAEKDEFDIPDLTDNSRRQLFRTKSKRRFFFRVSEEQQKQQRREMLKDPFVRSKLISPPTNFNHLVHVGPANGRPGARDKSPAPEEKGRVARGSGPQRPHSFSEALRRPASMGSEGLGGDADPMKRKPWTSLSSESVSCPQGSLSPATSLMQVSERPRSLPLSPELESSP
# [3] = molecular target: Calcium/calmodulin-dependent protein kinase type II subunit alpha (Homo sapiens) (UniProt Q9UQM7); assay: CAMK2A DiscoveRx kinase panel; conditions: Compound concentration 1.0 uM
# [4] = molecular target: Tyrosine-protein kinase TXK (Homo sapiens) (UniProt P42681); assay: TXK DiscoveRx kinase panel; conditions: Compound concentration 1.0 uM
# Tyrosine-protein kinase TXK (Homo sapiens), sequence (P42681 whole entry): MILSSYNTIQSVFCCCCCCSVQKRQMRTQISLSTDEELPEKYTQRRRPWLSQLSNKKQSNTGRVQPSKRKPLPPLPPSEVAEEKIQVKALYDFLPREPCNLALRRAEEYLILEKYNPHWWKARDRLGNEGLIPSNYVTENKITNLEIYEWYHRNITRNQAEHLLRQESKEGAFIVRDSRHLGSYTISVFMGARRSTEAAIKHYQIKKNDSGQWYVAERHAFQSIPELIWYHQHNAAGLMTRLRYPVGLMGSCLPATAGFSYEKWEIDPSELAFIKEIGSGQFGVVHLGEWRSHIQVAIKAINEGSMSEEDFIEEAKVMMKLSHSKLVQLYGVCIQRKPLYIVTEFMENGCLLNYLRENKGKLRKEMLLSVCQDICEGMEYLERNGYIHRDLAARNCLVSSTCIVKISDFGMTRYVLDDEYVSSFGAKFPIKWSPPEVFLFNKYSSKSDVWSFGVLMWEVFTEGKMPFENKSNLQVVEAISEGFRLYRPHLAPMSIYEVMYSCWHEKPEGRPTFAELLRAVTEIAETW
# [5] = molecular target: Ephrin type-A receptor 1 (Homo sapiens) (UniProt P21709); assay: EPHA1 DiscoveRx kinase panel; conditions: Compound concentration 1.0 uM
# [6] = molecular target: Calcium/calmodulin-dependent protein kinase type IV (Homo sapiens) (UniProt Q16566); assay: CAMK4 DiscoveRx kinase panel; conditions: Compound concentration 1.0 uM
# [7] = molecular target: Casein kinase I isoform delta (Homo sapiens) (UniProt P48730); assay: CSNK1D DiscoveRx kinase panel; conditions: Compound concentration 1.0 uM
# [8] = molecular target: Serine/threonine-protein kinase 32C (Homo sapiens) (UniProt Q86UX6); assay: YANK3 DiscoveRx kinase panel; conditions: Compound concentration 1.0 uM
# [9] = molecular target: MAP/microtubule affinity-regulating kinase 3 (Homo sapiens) (UniProt P27448); assay: MARK3 DiscoveRx kinase panel; conditions: Compound concentration 1.0 uM
# [10] = molecular target: Serine/threonine-protein kinase 25 (Homo sapiens) (UniProt O00506); assay: YSK1 DiscoveRx kinase panel; conditions: Compound concentration 1.0 uM
# [11] = molecular target: Cyclin-G-associated kinase (Homo sapiens) (UniProt O14976); assay: GAK DiscoveRx kinase panel; conditions: Compound concentration 1.0 uM
# [12] = molecular target: Serine/threonine-protein kinase Nek7 (Homo sapiens) (UniProt Q8TDX7); assay: NEK7 DiscoveRx kinase panel; conditions: Compound concentration 1.0 uM
# [13] = molecular target: Mitogen-activated protein kinase 8 (Homo sapiens) (UniProt P45983); assay: JNK1 DiscoveRx kinase panel; conditions: Compound concentration 1.0 uM
# [14] = molecular target: Serine/threonine-protein kinase PAK 3 (Homo sapiens) (UniProt O75914); assay: PAK3 DiscoveRx kinase panel; conditions: Compound concentration 1.0 uM
# Serine/threonine-protein kinase PAK 3 (Homo sapiens), sequence (O75914 whole entry, looked up): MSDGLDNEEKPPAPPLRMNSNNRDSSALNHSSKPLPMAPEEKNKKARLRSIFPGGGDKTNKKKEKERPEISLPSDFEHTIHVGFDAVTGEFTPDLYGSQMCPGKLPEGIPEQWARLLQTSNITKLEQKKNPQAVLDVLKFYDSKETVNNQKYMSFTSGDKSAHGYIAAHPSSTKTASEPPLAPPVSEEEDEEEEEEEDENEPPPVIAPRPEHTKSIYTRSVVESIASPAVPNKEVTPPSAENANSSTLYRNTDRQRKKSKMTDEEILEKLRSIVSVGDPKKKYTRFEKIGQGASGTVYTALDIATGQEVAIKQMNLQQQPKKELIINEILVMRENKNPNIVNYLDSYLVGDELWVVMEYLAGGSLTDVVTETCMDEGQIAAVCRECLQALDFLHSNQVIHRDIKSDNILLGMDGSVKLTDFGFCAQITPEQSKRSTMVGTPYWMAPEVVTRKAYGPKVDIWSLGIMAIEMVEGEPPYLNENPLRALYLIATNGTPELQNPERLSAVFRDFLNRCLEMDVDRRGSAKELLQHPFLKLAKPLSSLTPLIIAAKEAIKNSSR
# [15] = molecular target: Mast/stem cell growth factor receptor Kit (Homo sapiens) (UniProt P10721); assay: KIT DiscoveRx kinase panel; conditions: Compound concentration 1.0 uM
# [16] = molecular target: Serine/threonine-protein kinase SIK1 (Homo sapiens) (UniProt P57059); assay: SIK DiscoveRx kinase panel; conditions: Compound concentration 1.0 uM
# [17] = molecular target: Serine/threonine-protein kinase WNK3 (Homo sapiens) (UniProt Q9BYP7); assay: WNK3 DiscoveRx kinase panel; conditions: Compound concentration 1.0 uM
# [18] = molecular target: Interferon-induced, double-stranded RNA-activated protein kinase (Homo sapiens) (UniProt P19525); assay: PRKR DiscoveRx kinase panel; conditions: Compound concentration 1.0 uM
# [19] = molecular target: Mitogen-activated protein kinase kinase kinase 9 (Homo sapiens) (UniProt P80192); assay: MLK1 DiscoveRx kinase panel; conditions: Compound concentration 1.0 uM
# [20] = molecular target: Muscle, skeletal receptor tyrosine-protein kinase (Homo sapiens) (UniProt O15146); assay: MUSK DiscoveRx kinase panel; conditions: Compound concentration 1.0 uM
# [21] = molecular target: Serine/threonine-protein kinase 17A (Homo sapiens) (UniProt Q9UEE5); assay: DRAK1 DiscoveRx kinase panel; conditions: Compound concentration 1.0 uM
# [22] = molecular target: Ephrin type-B receptor 3 (Homo sapiens) (UniProt P54753); assay: EPHB3 DiscoveRx kinase panel; conditions: Compound concentration 1.0 uM
# [23] = molecular target: Protein-tyrosine kinase 2-beta (Homo sapiens) (UniProt Q14289); assay: PYK2 DiscoveRx kinase panel; conditions: Compound concentration 1.0 uM
# [24] = molecular target: Ephrin type-A receptor 4 (Homo sapiens) (UniProt P54764); assay: EPHA4 DiscoveRx kinase panel; conditions: Compound concentration 1.0 uM
# [25] = molecular target: Serine/threonine-protein kinase PRP4 homolog (Homo sapiens) (UniProt Q13523); assay: PRP4 DiscoveRx kinase panel; conditions: Compound concentration 1.0 uM
# Serine/threonine-protein kinase PRP4 homolog (Homo sapiens), sequence (Q13523 whole entry): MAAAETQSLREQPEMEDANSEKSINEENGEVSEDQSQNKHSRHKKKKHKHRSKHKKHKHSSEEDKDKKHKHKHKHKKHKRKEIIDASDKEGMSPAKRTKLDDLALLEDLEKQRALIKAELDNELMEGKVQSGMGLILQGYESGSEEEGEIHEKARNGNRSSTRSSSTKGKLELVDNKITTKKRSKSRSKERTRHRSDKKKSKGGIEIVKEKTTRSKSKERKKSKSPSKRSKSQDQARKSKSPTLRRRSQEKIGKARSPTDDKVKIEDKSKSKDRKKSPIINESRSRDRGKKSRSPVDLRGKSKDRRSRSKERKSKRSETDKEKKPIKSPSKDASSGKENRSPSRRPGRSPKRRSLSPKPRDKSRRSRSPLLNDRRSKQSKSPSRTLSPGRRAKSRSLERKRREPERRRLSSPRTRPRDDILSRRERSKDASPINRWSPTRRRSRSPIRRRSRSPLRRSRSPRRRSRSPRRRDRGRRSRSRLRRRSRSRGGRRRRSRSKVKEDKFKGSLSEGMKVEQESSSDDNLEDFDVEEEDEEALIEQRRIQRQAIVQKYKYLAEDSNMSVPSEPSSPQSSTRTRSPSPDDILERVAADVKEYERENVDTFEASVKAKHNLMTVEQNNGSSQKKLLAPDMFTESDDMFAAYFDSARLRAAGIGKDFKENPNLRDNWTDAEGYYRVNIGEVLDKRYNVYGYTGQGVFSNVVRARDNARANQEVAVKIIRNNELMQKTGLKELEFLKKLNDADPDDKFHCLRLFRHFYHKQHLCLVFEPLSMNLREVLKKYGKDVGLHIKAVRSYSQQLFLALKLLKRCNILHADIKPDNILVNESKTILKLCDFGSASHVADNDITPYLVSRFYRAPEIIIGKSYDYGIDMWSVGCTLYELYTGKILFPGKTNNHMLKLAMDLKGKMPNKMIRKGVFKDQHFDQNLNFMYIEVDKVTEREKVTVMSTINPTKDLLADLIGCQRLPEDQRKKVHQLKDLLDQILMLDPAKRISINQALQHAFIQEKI
# [26] = molecular target: Megakaryocyte-associated tyrosine-protein kinase (Homo sapiens) (UniProt P42679); assay: CTK DiscoveRx kinase panel; conditions: Compound concentration 1.0 uM
# [27] = molecular target: Insulin receptor (Homo sapiens) (UniProt P06213); assay: INSR DiscoveRx kinase panel; conditions: Compound concentration 1.0 uM
# [28] = molecular target: Phosphatidylinositol 3-kinase C2 domain-containing subunit gamma (Homo sapiens) (UniProt O75747); assay: PIK3C2G DiscoveRx kinase panel; conditions: Compound concentration 1.0 uM
# Phosphatidylinositol 3-kinase C2 domain-containing subunit gamma (Homo sapiens), sequence (O75747 whole entry, the tested form may be a part): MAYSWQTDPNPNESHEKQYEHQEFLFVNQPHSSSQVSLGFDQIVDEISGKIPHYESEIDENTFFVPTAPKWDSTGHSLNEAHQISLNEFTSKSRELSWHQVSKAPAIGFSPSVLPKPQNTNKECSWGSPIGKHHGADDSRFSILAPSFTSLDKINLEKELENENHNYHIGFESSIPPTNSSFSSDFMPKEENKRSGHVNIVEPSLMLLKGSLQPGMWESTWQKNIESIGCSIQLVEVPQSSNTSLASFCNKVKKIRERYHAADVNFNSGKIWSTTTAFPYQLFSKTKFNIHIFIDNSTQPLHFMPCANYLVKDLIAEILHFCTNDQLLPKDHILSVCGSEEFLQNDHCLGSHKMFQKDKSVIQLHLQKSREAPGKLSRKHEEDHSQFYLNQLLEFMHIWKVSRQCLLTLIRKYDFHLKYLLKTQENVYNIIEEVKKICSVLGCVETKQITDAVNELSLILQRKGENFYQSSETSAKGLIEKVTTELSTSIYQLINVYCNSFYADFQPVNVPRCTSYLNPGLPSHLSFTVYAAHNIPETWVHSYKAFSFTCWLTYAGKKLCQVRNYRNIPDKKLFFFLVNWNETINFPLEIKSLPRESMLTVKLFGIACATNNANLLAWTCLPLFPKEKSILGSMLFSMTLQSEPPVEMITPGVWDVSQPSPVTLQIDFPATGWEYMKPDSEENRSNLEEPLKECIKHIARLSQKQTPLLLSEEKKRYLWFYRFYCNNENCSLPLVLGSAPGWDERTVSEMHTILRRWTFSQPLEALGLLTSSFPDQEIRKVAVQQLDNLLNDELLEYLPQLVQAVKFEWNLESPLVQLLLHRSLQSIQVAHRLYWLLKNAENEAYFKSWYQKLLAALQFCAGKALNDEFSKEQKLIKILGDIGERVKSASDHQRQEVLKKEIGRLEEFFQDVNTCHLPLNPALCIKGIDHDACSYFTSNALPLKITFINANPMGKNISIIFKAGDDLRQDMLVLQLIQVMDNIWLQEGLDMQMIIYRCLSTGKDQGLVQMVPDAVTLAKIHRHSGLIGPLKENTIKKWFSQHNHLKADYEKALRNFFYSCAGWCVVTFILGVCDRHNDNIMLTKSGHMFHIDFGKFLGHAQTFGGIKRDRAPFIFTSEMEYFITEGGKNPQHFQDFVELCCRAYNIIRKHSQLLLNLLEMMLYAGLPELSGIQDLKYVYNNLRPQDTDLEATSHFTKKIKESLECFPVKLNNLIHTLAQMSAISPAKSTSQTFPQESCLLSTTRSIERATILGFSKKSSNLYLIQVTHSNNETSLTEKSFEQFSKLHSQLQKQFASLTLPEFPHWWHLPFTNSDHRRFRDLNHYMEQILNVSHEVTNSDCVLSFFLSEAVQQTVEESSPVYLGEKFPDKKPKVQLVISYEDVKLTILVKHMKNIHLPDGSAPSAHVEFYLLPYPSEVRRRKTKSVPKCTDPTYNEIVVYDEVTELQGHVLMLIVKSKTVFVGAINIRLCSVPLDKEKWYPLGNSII
# [29] = molecular target: Cyclin-dependent kinase 3 (Homo sapiens) (UniProt Q00526); assay: CDK3 DiscoveRx kinase panel; conditions: Compound concentration 1.0 uM
# [30] = molecular target: Dual specificity protein kinase CLK2 (Homo sapiens) (UniProt P49760); assay: CLK2 DiscoveRx kinase panel; conditions: Compound concentration 1.0 uM
# [31] = molecular target: Casein kinase I isoform gamma-3 (Homo sapiens) (UniProt Q9Y6M4); assay: CSNK1G3 DiscoveRx kinase panel; conditions: Compound concentration 1.0 uM
# [32] = molecular target: Casein kinase II subunit alpha (Homo sapiens) (UniProt P68400); assay: CSNK2A1 DiscoveRx kinase panel; conditions: Compound concentration 1.0 uM
# [33] = molecular target: Ephrin type-A receptor 8 (Homo sapiens) (UniProt P29322); assay: EPHA8 DiscoveRx kinase panel; conditions: Compound concentration 1.0 uM
# [34] = molecular target: Receptor tyrosine-protein kinase erbB-4 (Homo sapiens) (UniProt Q15303); assay: ERBB4 DiscoveRx kinase panel; conditions: Compound concentration 1.0 uM
# [35] = molecular target: Mitogen-activated protein kinase kinase kinase 11 (Homo sapiens) (UniProt Q16584); assay: MLK3 DiscoveRx kinase panel; conditions: Compound concentration 1.0 uM
# [36] = molecular target: Myosin-IIIa (Homo sapiens) (UniProt Q8NEV4); assay: MYO3A DiscoveRx kinase panel; conditions: Compound concentration 1.0 uM
# [37] = molecular target: Serine/threonine-protein kinase PAK 2 (Homo sapiens) (UniProt Q13177); assay: PAK2 DiscoveRx kinase panel; conditions: Compound concentration 1.0 uM
# [38] = molecular target: Serine/threonine-protein kinase pim-3 (Homo sapiens) (UniProt Q86V86); assay: PIM3 DiscoveRx kinase panel; conditions: Compound concentration 1.0 uM
# [39] = molecular target: Rho-associated protein kinase 1 (Homo sapiens) (UniProt Q13464); assay: ROCK1 DiscoveRx kinase panel; conditions: Compound concentration 1.0 uM
# [40] = molecular target: Ribosomal protein S6 kinase alpha-6 (Homo sapiens) (UniProt Q9UK32); assay: RSK4(Kin.Dom.1-N-terminal) DiscoveRx kinase panel; conditions: Compound concentration 1.0 uM
# [41] = molecular target: STE20-like serine/threonine-protein kinase (Homo sapiens) (UniProt Q9H2G2); assay: SLK DiscoveRx kinase panel; conditions: Compound concentration 1.0 uM
# [42] = molecular target: Tyrosine-protein kinase SYK (Homo sapiens) (UniProt P43405); assay: SYK DiscoveRx kinase panel; conditions: Compound concentration 1.0 uM
# [43] = molecular target: 5-hydroxytryptamine receptor 2A (Homo sapiens) (UniProt P28223); assay: Serotonin (5-Hydroxytryptamine) 5-HT2A Eurofins-Panlabs radioligand binding assay; conditions: Compound concentration 10.0 uM
# SUM149PT = assay: SUM-149 cell line Proliferation assay; format: functional, Homo sapiens; conditions: time 4 day
# [44] = molecular target: Histamine H3 receptor (Homo sapiens) (UniProt Q9Y5N1); conditions: Compound concentration 10.0 uM
# [45] = molecular target: Histamine H4 receptor (Homo sapiens) (UniProt Q9H3N8); conditions: Compound concentration 10.0 uM
# [46] = molecular target: 5-hydroxytryptamine receptor 2B (Homo sapiens) (UniProt P41595); conditions: Compound concentration 10.0 uM
# [47] = PHKG2 DiscoveRx kinase panel; conditions: Homo sapiens; Compound concentration 1.0 uM
structure (smiles),measurement,setting,value
COc1cnccc1Nc1nc(-c2nn(Cc3c(F)cc(OCCO)cc3F)c3ccccc23)ncc1OC,"inhibition at 60 min, 10 µM",MAO-A,7% (not active)
same,EC50,[1],0.0061 µM (active)
same,Kd,[2],0.85 µM
same,residual activity,[2]; Compound concentration 1.0 uM,22%
same,residual activity,[3],58%
same,residual activity,[4],64%
same,residual activity,[5],65%
same,residual activity,[6],68%
same,residual activity,[7],68%
same,residual activity,[8],72%
same,residual activity,[9],73%
same,residual activity,[10],76%
same,residual activity,[11],77%
same,residual activity,[12],78%
same,residual activity,[13],79%
same,residual activity,[14],81%
same,residual activity,[15],82%
same,residual activity,[16],84%
same,residual activity,[17],87%
same,residual activity,[18],88%
same,residual activity,[19],92%
same,residual activity,[20],93%
same,residual activity,[21],95%
same,residual activity,[22],95%
same,residual activity,[23],95%
same,residual activity,[24],96%
same,residual activity,[25],96%
same,residual activity,[26],97%
same,residual activity,[27],97%
same,residual activity,[28],98%
same,residual activity,[29],99%
same,residual activity,[30],100%
same,residual activity,[31],100%
same,residual activity,[32],100%
same,residual activity,[33],100%
same,residual activity,[34],100%
same,residual activity,[35],100%
same,residual activity,[36],100%
same,residual activity,[37],100%
same,residual activity,[38],100%
same,residual activity,[39],100%
same,residual activity,[40],100%
same,residual activity,[41],100%
same,residual activity,[42],100%
same,inhibition,[43],22%
same,Cell Proliferation IC50,SUM149PT,0.64 µM
same,inhibition,[44],21.3%
same,inhibition,[45],39.3%
same,inhibition,[46],22%
same,residual activity,[47],98%
